From paper PMC10671849, “Synthesis and Evaluation of Marine-Inspired Compounds Result in Hybrids with Antitrypanosomal and Antileishmanial Activities” (Marine Drugs, 2023)
≈ marks a conversion by molar mass, not a printed value.

Legend:
[1] = Cytotoxicity MTT assay on PMA-differentiated THP-1 macrophages; format: cell-based; conditions: human; PMA-differentiated THP-1 macrophages, 72 h, MTT; 100 to 12.5 µM tested; read-out: Cytotoxicity CC50 (µM) 95% CI, THP-1
Method: A human leukemia cell line, THP-1 (ATCC® TIB-202™), was cultured in RPMI-1640 medium supplemented with 10% heat-inactivated fetal bovine serum (FBS), 2 mM L-glutamine, 100 IU/mL penicillin/streptomycin, and 20 mM HEPES. The cell line was maintained in a humidified incubator at 37 °C and 5% CO2 by subculture every 3 days in 20 mL of media at a concentration of 2 × 10^5/mL in a T75 flask. All cell culture reagents were purchased from Lonza-Bioscience (Morrisville, NC, USA).
The cytotoxicity effect of compounds on THP-1-derived macrophages was assessed by colorimetric MTT assay (3-(4,5-dimethylthiazol-2-yl)-2,5-diphenyl tetrazolium bromide). Briefly, THP-1 cells were suspended in RPMI complete medium at a density of 1 × 10^6 cells/mL and 100 μL/well and were seeded in a 96-well plate and differentiated into macrophages by addition of 40 ng/mL of phorbol-myristate 13-acetate (PMA, Sigma, Saint Louis, MI, USA) for 24 h, followed by replacement with fresh medium for 24 more h. Subsequently, the cells were incubated with 100 μL of compounds ranging from 100 to 12.5 μM after dilution in the RPMI complete medium. Each condition was carried out in quadruplicate. After 72 h of incubation at 37 °C and 5% CO2, the medium was removed, and 200 μL of 0.5 mg/mL MTT solution diluted in RPMI was added. The plates were incubated for an additional 4 h. Then, 160 μL of media was removed, and the same volume of 2-propanol was added. Absorbance was read at 570 nm using a Synergy 2 Multi-Mode Reader (Biotek, Winooski, VT, USA). Cytotoxicity was evaluated by the determination of the CC50 value (drug concentration that reduced the percentage of viable cells by 50%) and calculated by non-linear regression analysis using GraphPad Prism software, version 8.1.1 for Windows (GraphPad Software, San Diego, CA, USA). The results represent the average of at least three independent experiments. For each compound, the selectivity index (SI) was calculated as the ratio between cytotoxicity in THP-1 (CC50, 72 h) and activity against parasites (IC50, 72 h).

[2] = test system: Candida albicans ATCC 10231; experiment: Antifungal broth microdilution (CLSI M27-A3), MIC/MLC; format: cell-based; conditions: for MIC: Candida albicans, ATCC10231, broth microdilution, 16 to 512 µg/mL, 48 h at 36 °C
Method: All tested compounds (9a–9d, 10a–10c, 13, 14, and eugenol (1)) were prepared in DMSO (Sigma-Aldrich, St. Louis, MO, USA) at a concentration of 10 mg/mL. The reference drugs used (voriconazole (Sigma-Aldrich, St. Louis, MO, USA) for fungi and quality control; gentamicin (Sigma-Aldrich, St. Louis, MO, USA) for bacterial and quality control) were prepared at 6.4 mg/mL. The stock solutions of the compounds were stored at –20 °C until immediately before the assays and then were diluted in fresh culture medium, RPMI-1640 medium (Biochrom AG, Berlin, Germany) buffered with 3-(N-morpholino)propanesulfonic acid (MOPS—Sigma-Aldrich, St. Louis, MO, USA) for fungi and cation-adjusted Mueller–Hinton broth (MHBII—Becton Dickinson, France) for bacteria, henceforth referred to as RPMI and MHB, respectively.
Fungal strains, including reference strains and clinical isolates, were used for the study of the antifungal activity: a yeast reference strain from American Type Culture Collection (ATCC), Candida albicans ATCC 10231; filamentous fungi reference strain Aspergillus fumigatus ATCC 240305; and a clinical isolate of dermatophytes Trichophyton rubrum FF5. Candida krusei ATCC 6258 was used as a quality control. All fungal strains were stored in Sabouraud dextrose broth (SDB—Bio-Mèrieux, Marcy L’Etoile, France) with glycerol (20%) at −80 °C and were subcultured in Sabouraud dextrose agar (SDA—Bio-Mèrieux, Marcy L’Etoile, France) for 24–72 h (yeasts and A. fumigatus) or 5–7 days (T. rubrum) before each assay to obtain optimal growth and purity conditions. Two bacteria strains were used, one Gram positive and one Gram negative: Staphylococcus aureus ATCC 25923 and Escherichia coli ATCC 25922, respectively. The bacterial strains were stored in trypticase soy broth (TSB—Biolife, Milan, Italy) with glycerol (10%) at −80 °C and subcultured in Mueller–Hinton agar (MHA—Bio-Mèrieux, Marcy L’Etoile, France) for 24 h before each assay.
For the purpose of quantitatively measuring the antifungal activity in vitro, a broth microdilution method was used to determine the MICs using the CLSI reference protocols M27-A3 [27] for yeasts and M38-A2 [28] for filamentous fungi. In short, two-fold serial dilutions of each stock solution were prepared using RPMI medium (pH 7) to obtain a range of test concentrations from 16 to 512 μg/mL. The yeasts or spore suspensions were prepared from 24 to 72-h cultures (yeasts and Aspergillus) or from 5–7 days of cultures (dermatophyte) in saline solution (with a drop of Tween 20 for the filamentous fungi). The transmittance of the cell density of yeasts was adjusted to 0.5 McFarland standard, and for filamentous fungi, the spores were counted using a Neubauer camera. Dilutions were performed using RPMI to obtain cell final concentrations in the plate of 0.5–2.5 × 10^3 colony forming units (CFU)/mL for yeasts, 0.4–5 × 10^4 CFU/mL for Aspergillus, and 1–3 × 10^3 CFU/mL for dermatophytes. Plates with the prepared serial dilutions of the tested compounds were inoculated with the same volume of the fungal suspension, and sterility (wells with only culture medium), growth (wells with cell suspensions in culture medium), and DMSO controls (wells with cell suspensions in culture medium containing 1% DMSO) were included in each assay. […] For the tested compounds, MIC values were considered the minimum concentration that inhibited the yeast growth by 100% compared to the growth control. The reference drug, voriconazole, was tested against C. krusei ATCC 6258 as a quality control, and the results were within the limits of CLSI reference documents.
After MIC readings, 10 μL of suspension were collected from wells corresponding to the MIC and the highest concentration following the MIC and were deposited in SDA plates. The plates were incubated following the conditions previously mentioned for the MIC evaluation, and the MLC was determined as the lowest concentration at which no fungal growth is observed.

Compound	CC50 at 72 h [1] [µM]	MIC [2] [µg/mL]	MLC C. albicans ([2]; minimum lethal concentration, subculture on SDA after MIC reading) [µg/mL]
C=CCc1cc(Cn2cc(C(=O)Nc3ccccc3C(N)=O)nn2)c(O)c(OC)c1 [9a, 1-(5-allyl-2-hydroxy-3-methoxybenzyl)-N-(2-carbamoylphenyl)-1H-1,2,3-triazole-4-carboxamide]	> 100	> 512	
C=CCc1cc(Cn2cc(C(=O)Nc3ccc(OC)cc3C(N)=O)nn2)c(O)c(OC)c1 [9b, 1-(5-allyl-2-hydroxy-3-methoxybenzyl)-N-(2-carbamoyl-4-methoxyphenyl)-1H-1,2,3-triazole-4-carboxamide]	> 100	> 512	
C=CCc1cc(Cn2cc(C(=O)Nc3ccc(F)cc3C(N)=O)nn2)c(O)c(OC)c1 [9c, 1-(5-allyl-2-hydroxy-3-methoxybenzyl)-N-(2-carbamoyl-4-fluorophenyl)-1H-1,2,3-triazole-4-carboxamide]	45.8	> 512	
C=CCc1cc(Cn2cc(C(=O)Nc3ccc(Cl)cc3C(N)=O)nn2)c(O)c(OC)c1 [9d, 1-(5-allyl-2-hydroxy-3-methoxybenzyl)-N-(2-carbamoyl-4-chlorophenyl)-1H-1,2,3-triazole-4-carboxamide]	> 100	> 512	
C=CCc1cc(Cn2cc(-c3nc4ccccc4c(=O)[nH]3)nn2)c(O)c(OC)c1 [10a, 2-(1-(5-allyl-2-hydroxy-3-methoxybenzyl)-1H-1,2,3-triazol-4-yl)quinazolin-4(3H)-one]	> 100	> 512	
C=CCc1cc(Cn2cc(-c3nc4ccc(OC)cc4c(=O)[nH]3)nn2)c(O)c(OC)c1 [10b, 2-(1-(5-allyl-2-hydroxy-3-methoxybenzyl)-1H-1,2,3-triazol-4-yl)-6-methoxyquinazolin-4(3H)-one]	> 100	> 512	
C=CCc1cc(Cn2cc(-c3nc4ccc(F)cc4c(=O)[nH]3)nn2)c(O)c(OC)c1 [10c, 2-(1-(5-allyl-2-hydroxy-3-methoxybenzyl)-1H-1,2,3-triazol-4-yl)-6-fluoroquinazolin-4(3H)-one]	> 100	> 512	
C=CCc1ccc(O)c(OC)c1 [Eugenol, eugenol, reference compound]	> 100	512 (≈ 3120 µM)	> 512
C=CCc1ccc(OCc2cn(CC(=O)Nc3ccccc3C(=O)O)nn2)c(OC)c1 [compound 13, 2-(2-(4-((4-allyl-2-methoxyphenoxy)methyl)-1H-1,2,3-triazol-1-yl)acetamido) benzoic acid]	> 100	> 512	
C=CCc1cc(Cn2cc(-c3nc4ccccc4c(=O)o3)nn2)c(O)c(OC)c1 [compound 14, 2-(1-(5-allyl-2-hydroxy-3-methoxybenzyl)-1H-1,2,3-triazol-4-yl)-4H-benzo[d][1,3]oxazin-4-one]	> 100	> 512	
